Measurements published in US20110224221A1, “HEMATOPOIETIC PROTECTION AGAINST IONIZING RADIATION USING SELECTIVE CYCLIN-DEPENDENT KINASE 4/6 INHIBITORS” (priority 2008, published 2011).
Entries after “also recorded” stand apart in the source; their conditions may differ.

Assays:
[1] = tested on: TyrRAS+Ink4a/Arf−/− melanoma; assay: Tumor growth in Tyr-RAS+Ink4a/Arf−/− melanoma GEMM under daily treatment; format: in vivo, mice
Description: Animals: All mice were housed in accord with the University of North Carolina at Chapel Hill (UNC-CH) Institutional Animal Care and Use Committee. Young adult (6-12 weeks of age), virgin female C57B1/6 mice were purchased from Jackson Labs (Bar Harbor, Me., United States of America). C3H mice were obtained from Harlan Sprague-Dawley Inc. (Indianapolis, Ind., United States of America). Experiments on tumor-bearing TyrRAS+Ink4a/Arf−/− mice (see Chin et al., Genes & development, 11, 2822-2834 (1997)) were performed in animals fully backcrossed (N>10) to the FVB/n background. Mice were treated as previously described (see Ramsey et al., Cancer Res., 67, 4732-4741 (2007)) with PD 0332991 obtained from Pfizer Inc., (New York, N.Y., United States of America) given by oral gavage at a dose of 150 mg/kg body weight. TyrRAS+Ink4a/Arf−/− mice were serially observed until tumor development. When tumors were about 0.2 cm^2 in size, daily PD 0332991 treatment was begun. The data shown in FIGS. 2B and 2D were normalized to tumor size at the time of therapy initiation. Tumor-bearing mice were euthanized at the indicated times for morbidity, tumor ulceration, or tumor size >1.5 cm in diameter.
See Walker et al., Genes Chromosomes Cancer, 22, 157-163 (1998); and Daniotti et al., Oncogene, 23, 5968-5977 (2004). […]

[2] = tested on: TyrRAS+Ink4a/Arf−/− melanoma; assay: Tumor-bearing mice given 7.5 Gy TBI: tumor growth and mortality; format: in vivo
Description: Tumor growth with (open squares) or without (closed diamonds) a single dose of 6-acetyl-8-cyclopentyl-5-methyl-2-(5-piperazin-1-yl-pyridin-2-ylamino)-8H-pyrido-[2,3-d]-pyrimidin-7-one (PD0332991) administered 4 hours prior to 7.5 gray (Gy) total body irradiation (TBI). […] Error bars indicate standard error of the mean.
FIG. 2E is a set of Kaplan-Meyer survival curves showing overall mortality, tumor-specific mortality and mortality to radiation toxicity of tumor bearing mice treated with 7.5 gray (Gy) of total body irradiation (TBI) with (solid line, n=8) or without (dashed line n=11) 6-acetyl-8-cyclopentyl-5-methyl-2-(5-piperazin-1-yl-pyridin-2-ylamino)-8H-pyrido-[2,3-d]-pyrimidin-7-one (PD 0332991) treatment 4 hours prior to ionizing radiation (IR). P-values calculated using the log-rank test.
Young adult (6-12 weeks of age), virgin female C57B1/6 mice were purchased from Jackson Labs (Bar Harbor, Me., United States of America). […] Experiments on tumor-bearing TyrRAS+Ink4a/Arf−/− mice (see Chin et al., Genes & development, 11, 2822-2834 (1997)) were performed in animals fully backcrossed (N>10) to the FVB/n background. Mice were treated as previously described (see Ramsey et al., Cancer Res., 67, 4732-4741 (2007)) with PD 0332991 obtained from Pfizer Inc., (New York, N.Y., United States of America) given by oral gavage at a dose of 150 mg/kg body weight. TyrRAS+Ink4a/Arf−/− mice were serially observed until tumor development. When tumors were about 0.2 cm^2 in size, daily PD 0332991 treatment was begun. […] Tumor-bearing mice were euthanized at the indicated times for morbidity, tumor ulceration, or tumor size >1.5 cm in diameter.
For TBI experiments, mice were irradiated using a ^137Cs source (AECL Gammacell 40 Irradiator, Atomic Energy of Canada Ltd, Mississauga, Ontario, Canada). Delivered doses were at or near the empirically determined LD90 of 7.5 Gy, consistent with prior studies.

bone marrow cells = assay: Bone marrow cellularity, immunophenotypic frequency, apoptosis and viability; format: in vivo, mice; conditions: 48 hour treatment
Description: For HSPC proliferation experiments, mice received daily oral gavage with PD0332991 for 2 days with 1 mg BrdU intraperitoneal injection every 6 hours for 24 hours prior to sacrifice. BM-MNC harvest and immunophenotyping was performed using RBC lysis, biotin-conjugated Lin-panel incubation (Invitrogen Corporation, Carlsbad, Calif., United States of America), paramagnetic bead-conjugated straptavidin (Miltinyi Biotec, Bergisch Gladbach, Germany) incubation, and magnetic depletion using an AutoMACS (Miltinyi Biotec, Bergisch Gladbach, Germany). At least 2×10^6 Lin-depleted cells per mouse were incubated with fluorescently labeled antibodies against cell surface antigens used to identify hematopoietic progenitor subpopulations as previously described (see Passegue et al., J. Exp. Med., 202, 1599-1611 (2005); and Kiel et al., Cell, 121, 1109-1121 (2005): CD34-FITC, CD16/32-PacificBlue, IL7Ra-PE-Cy5, and cKit-APC-Alexa750 from eBiosciences, Inc. (San Diego, Calif., United States of America); Sca1-PE-Cy7, CD150-PE-Cy5, and CD48-PacificBlue from BioLegend (San Diego, Calif., United States of America); and Aqua Live/Dead viability dye (Invitrogen Corporation, Carlsbad, Calif., United States of America). Streptavidin-PE-TexasRed (Invitrogen Corporation, Carlsbad, Calif., United States of America) was used to confirm efficiency of lineage-depletion. After cell surface staining, cells were fixed, permeabilized, and stained with antibodies against Ki67-FITC, BrdU-APC, and caspase3-PE (BD Biosciences Pharmingen, San Diego, Calif., United States of America).
In all experiments, gating based on isotype controls was used as appropriate. Flow cytometry was performed using a CyAn ADP (Dako, Glostrup, Denmark) and analyzed with FlowJo software (Tree Star, Ashland, Oreg., United States of Ameria). For each bone marrow sample, a minimum of 200,000 cells were analyzed. For cell culture samples, a minimum of 20,000 cells were analyzed.
The effects on immunophenotypic HSPC frequency were validated by other methods.

[3] = tested on: bone marrow mononuclear cells (BM-MNCs); assay: Cobblestone area-forming cell (CAFC) assay; format: cell-based, mice; conditions: daily oral gavage for 2 days prior to bone marrow harvest
Description: CAFCs are per 1×10^5 bone marrow mononuclear cells (BM-MNCs). Error bars are +/− the standard error of the mean of pooled samples measured in duplicate.
Cobblestone Area-forming Cell (CAFC) Assay: The CAFC assay was performed as described previously. See Meng et al., Cancer Res., 63, 5414-5419 (2003). Briefly, bone marrow was harvested from femurs and tibias of mice and centrifuged to purify BM-MNCs. The frequencies of CAFC were determined at weekly intervals (on day 7, 14, and 35). Wells were scored positive if at least one phase-dark hematopoietic clone (containing 5 or more cells) was seen. The frequency of CAFC was then calculated by using Poisson statistics as described.

[4] = Serum/plasma levels after oral gavage; format: in vivo, mice
Description: Mass Spectrometry: Mice were dosed as described and tail vein nick performed to acquire 30 μL periphal blood. Blood was centrifuged to acquire 10 μL plasma, which was mixed with 100 μL ice cold methanol, centrifuged, and mixed with 10 μL of an internal control. Plasma levels were quantified based on standard curves derived in triplicate from known concentrations of wild type C57Bl/6 female mouse plasma unexposed to the measured drug. Quantification was performed using HPLC separation with triple quadrupole mass spectrometry normalizing results to measurement of the internal standard.

[5] = treatment 4 hours prior to 7.5 Gy TBI

CC(=O)c1c(C)c2cnc(Nc3ccc(N4CCNCC4)cn3)nc2n(C2CCCC2)c1=O [PD0332991, 6-acetyl-8-cyclopentyl-5-methyl-2-(5-piperazin-1-yl-pyridin-2-ylamino)-8H-pyrido-[2,3-d]-pyrimidin-7-one]
mice that developed new tumors while receiving treatment ([1]; 150 mg/kg daily, in the 8-16 days): two of five | growth of established tumors ([1]; 150 mg/kg oral gavage daily, tumor-bearing Tyr-RAS+Ink4a/Arf−/− mice): no regression or decrease in tumor growth; also recorded: insensitive | anti-tumor effect of therapeutic IR ([2]; single dose 4 hours prior to 7.5 Gy TBI): does not decrease that anti-tumor effect of therapeutic radiotherapy | mortality to radiation toxicity [2, 5]: does appear to provide protection from radiation toxicity | tumor-related mortality [2, 5]: does not appear to increase tumor-related mortality | HSC and MPP frequencies (bone marrow cells): relative increase; also recorded: relative enrichment | Lin− or HSC apoptosis or viability (bone marrow cells): without altering | absolute number of lineage negative cells (bone marrow cells): did decrease | frequency of oligopotent progenitors (Lin−cKit+Sca1−) (bone marrow cells): declined | total marrow cellularity (bone marrow cells): did not decrease | in vivo HSPC number (CAFC) [3]: did not decrease in vivo HSPC number | persistence of therapeutic serum levels [4]: 10 to 20 h | time until therapeutic serum levels are achieved [4]: > 30 min
